# Assay results reported in patent US9636418B2 (priority 2013, dated 2017).
# Where two headings read alike, the source gives them in different places.
# How the values were obtained:
# Test in all cases: cell-based
# hNav1.7 [1] = molecular target: T1, hNav1.7 (Homo sapiens, UniProt Q15858); details: IonWorks Quattro; read-out: IC50 Nav1.7
# hNav1.5 = hNav1.5 (Homo sapiens, UniProt Q14524); details: PatchXpress, read-out: PX hNav1.5 Tonic IC50
# hNav1.7 [2] = molecular target: T1, hNav1.7; assay type: cell-based; details: PatchXpress, read-out: PX hNav1.7 Tonic IC50
# hNav1.4 = hNav1.4 (Homo sapiens, UniProt P35499); details: for IC50: PatchXpress, read-out: PX hNav1.4 Tonic IC50
# [3] = * = at high concentrations compound would wash off slowly or not at all
# Sequence of hNav1.5 (Q14524 whole entry): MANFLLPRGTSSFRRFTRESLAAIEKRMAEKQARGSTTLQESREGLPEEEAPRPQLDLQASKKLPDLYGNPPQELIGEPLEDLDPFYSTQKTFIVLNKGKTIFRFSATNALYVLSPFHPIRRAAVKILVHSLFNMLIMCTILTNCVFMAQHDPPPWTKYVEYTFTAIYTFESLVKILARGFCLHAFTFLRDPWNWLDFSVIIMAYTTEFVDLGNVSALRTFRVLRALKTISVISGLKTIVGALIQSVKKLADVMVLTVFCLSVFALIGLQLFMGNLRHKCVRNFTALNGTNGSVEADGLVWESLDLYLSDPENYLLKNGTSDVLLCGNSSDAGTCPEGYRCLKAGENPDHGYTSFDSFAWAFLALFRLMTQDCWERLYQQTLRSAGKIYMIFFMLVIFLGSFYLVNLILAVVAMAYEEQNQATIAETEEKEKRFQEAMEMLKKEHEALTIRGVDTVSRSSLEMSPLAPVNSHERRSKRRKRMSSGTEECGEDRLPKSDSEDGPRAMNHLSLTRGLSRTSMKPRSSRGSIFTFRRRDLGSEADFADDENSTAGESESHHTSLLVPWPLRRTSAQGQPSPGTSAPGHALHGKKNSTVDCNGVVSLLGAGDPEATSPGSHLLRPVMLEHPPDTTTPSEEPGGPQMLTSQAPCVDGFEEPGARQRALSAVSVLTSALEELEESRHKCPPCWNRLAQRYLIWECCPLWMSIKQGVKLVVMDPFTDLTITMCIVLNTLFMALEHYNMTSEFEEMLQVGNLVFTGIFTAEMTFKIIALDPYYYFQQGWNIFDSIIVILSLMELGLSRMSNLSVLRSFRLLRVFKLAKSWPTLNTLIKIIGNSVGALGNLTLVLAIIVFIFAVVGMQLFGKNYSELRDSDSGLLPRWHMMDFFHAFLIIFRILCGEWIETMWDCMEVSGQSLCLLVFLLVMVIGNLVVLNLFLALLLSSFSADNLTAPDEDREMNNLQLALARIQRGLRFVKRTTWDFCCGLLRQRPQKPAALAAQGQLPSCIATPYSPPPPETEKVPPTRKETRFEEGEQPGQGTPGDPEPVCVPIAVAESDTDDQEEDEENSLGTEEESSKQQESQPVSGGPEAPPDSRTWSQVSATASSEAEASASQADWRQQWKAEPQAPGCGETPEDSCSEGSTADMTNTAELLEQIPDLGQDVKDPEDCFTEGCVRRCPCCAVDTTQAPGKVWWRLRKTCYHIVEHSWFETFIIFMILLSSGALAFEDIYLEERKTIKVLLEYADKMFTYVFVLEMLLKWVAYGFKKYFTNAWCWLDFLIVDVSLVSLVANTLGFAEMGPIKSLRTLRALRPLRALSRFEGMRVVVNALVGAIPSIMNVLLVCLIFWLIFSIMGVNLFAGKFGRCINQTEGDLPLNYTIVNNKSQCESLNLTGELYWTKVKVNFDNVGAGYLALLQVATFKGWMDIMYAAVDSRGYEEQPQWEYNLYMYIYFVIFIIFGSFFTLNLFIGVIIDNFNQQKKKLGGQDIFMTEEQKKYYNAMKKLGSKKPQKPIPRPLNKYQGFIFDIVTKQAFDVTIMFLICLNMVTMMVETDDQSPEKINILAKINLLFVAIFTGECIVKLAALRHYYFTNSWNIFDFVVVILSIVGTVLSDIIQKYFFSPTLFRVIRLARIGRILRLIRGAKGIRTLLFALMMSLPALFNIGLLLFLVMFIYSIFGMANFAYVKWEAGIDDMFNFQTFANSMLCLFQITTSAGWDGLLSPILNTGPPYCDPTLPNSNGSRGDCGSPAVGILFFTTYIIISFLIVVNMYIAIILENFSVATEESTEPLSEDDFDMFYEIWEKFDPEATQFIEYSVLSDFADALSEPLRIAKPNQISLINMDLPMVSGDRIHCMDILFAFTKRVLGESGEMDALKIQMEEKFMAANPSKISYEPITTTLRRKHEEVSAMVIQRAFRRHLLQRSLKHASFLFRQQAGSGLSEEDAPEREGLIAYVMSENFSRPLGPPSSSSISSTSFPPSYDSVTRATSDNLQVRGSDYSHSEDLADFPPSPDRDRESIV
# Sequence of hNav1.4 (P35499 whole entry): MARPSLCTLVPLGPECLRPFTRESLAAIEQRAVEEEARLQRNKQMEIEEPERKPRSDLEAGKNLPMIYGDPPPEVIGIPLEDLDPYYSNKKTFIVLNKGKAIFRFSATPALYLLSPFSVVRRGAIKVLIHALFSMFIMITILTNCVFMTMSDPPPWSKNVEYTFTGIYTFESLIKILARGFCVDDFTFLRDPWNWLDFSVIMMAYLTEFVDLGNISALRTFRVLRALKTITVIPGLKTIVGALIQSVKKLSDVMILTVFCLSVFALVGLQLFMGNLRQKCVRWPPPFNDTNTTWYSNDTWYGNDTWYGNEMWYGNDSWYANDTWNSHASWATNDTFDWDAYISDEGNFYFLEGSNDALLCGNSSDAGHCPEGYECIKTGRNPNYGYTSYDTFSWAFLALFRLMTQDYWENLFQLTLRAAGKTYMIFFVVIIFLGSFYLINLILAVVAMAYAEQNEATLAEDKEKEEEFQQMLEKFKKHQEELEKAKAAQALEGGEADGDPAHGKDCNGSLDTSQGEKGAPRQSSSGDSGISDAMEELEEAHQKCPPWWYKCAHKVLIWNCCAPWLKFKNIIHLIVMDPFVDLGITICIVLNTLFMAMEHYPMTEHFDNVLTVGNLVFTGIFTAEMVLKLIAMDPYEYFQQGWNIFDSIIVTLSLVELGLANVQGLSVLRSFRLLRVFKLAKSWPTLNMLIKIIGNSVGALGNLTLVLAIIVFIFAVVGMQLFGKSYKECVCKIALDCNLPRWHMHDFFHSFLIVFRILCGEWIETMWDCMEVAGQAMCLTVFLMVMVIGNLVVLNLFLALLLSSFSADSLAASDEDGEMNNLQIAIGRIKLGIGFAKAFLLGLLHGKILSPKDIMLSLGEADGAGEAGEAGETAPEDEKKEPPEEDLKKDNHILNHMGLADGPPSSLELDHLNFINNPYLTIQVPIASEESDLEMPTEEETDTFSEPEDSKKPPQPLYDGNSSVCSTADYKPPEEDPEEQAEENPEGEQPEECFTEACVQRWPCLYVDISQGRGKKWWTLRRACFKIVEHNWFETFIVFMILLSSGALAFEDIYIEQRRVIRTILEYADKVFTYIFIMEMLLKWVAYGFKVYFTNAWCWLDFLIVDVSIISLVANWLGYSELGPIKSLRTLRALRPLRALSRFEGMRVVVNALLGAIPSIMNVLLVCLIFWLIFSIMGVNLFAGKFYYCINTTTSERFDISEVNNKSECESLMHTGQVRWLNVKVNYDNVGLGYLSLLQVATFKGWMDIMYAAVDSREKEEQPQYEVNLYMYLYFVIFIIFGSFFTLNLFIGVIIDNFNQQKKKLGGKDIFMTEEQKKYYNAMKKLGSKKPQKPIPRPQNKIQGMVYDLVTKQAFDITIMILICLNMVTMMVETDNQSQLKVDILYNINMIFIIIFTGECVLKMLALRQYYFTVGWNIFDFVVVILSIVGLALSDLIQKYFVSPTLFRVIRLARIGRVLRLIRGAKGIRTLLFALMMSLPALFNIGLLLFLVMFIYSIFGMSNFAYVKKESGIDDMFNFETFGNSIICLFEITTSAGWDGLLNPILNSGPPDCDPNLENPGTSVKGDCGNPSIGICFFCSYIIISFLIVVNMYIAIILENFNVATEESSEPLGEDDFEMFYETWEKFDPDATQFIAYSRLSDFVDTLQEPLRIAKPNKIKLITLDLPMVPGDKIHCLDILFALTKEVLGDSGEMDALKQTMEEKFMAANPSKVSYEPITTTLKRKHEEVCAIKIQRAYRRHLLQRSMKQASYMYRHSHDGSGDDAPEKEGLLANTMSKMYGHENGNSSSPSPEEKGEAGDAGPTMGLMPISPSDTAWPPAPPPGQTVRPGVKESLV
smiles,measurement,setting,value
CCCC[C@@H]1NC(=O)[C@H](Cc2c[nH]c3ccccc23)NC(=O)[C@H](CCCCN)NC(=O)[C@H](CCC(N)=O)NC(=O)[C@@H](NC(=O)[C@@H](N)Cc2ccc(O)cc2)CSSC[C@@H]2NC(=O)[C@@H]3CSSC[C@@H](C(=O)N[C@@H](CCCNC(=N)N)C(=O)N[C@@H](CCCCN)C(=O)N[C@H](C(=O)N[C@@H](Cc4c[nH]c5ccccc45)C(N)=O)[C@@H](C)CC)NC(=O)[C@H](Cc4c[nH]c5ccccc45)NC(=O)[C@H](CC(C)C)NC(=O)[C@H](CCCCN)NC(=O)[C@H](CSSC[C@H](NC(=O)[C@H]([C@@H](C)O)NC(=O)[C@H](Cc4c[nH]c5ccccc45)NC1=O)C(=O)N[C@@H](CC(=O)O)C(=O)N[C@@H](CO)C(=O)N[C@@H](CCCCN)C(=O)N[C@@H](CCCNC(=N)N)C(=O)N[C@@H](C)C(=O)N3)NC(=O)[C@H](CCC(=O)O)NC(=O)[C@H](CC(C)C)NC(=O)CNC(=O)[C@H](CCC(=O)O)NC2=O [compound 294],IC50,hNav1.7 [1],24 nM
C#CC[C@H](N)C(=O)N[C@@H](Cc1ccc(O)cc1)C(=O)N[C@H]1CSSC[C@@H]2NC(=O)[C@@H]3CSSC[C@@H](C(=O)N[C@@H](CCCNC(=N)N)C(=O)N[C@@H](CCCCN)C(=O)N[C@H](C(=O)N[C@@H](Cc4c[nH]c5ccccc45)C(N)=O)[C@@H](C)CC)NC(=O)[C@H](Cc4c[nH]c5ccccc45)NC(=O)[C@H](CC(C)C)NC(=O)[C@H](CCCCN)NC(=O)[C@H](CSSC[C@H](NC(=O)[C@H]([C@@H](C)O)NC(=O)[C@H](Cc4c[nH]c5ccccc45)NC(=O)[C@H](CCSC)NC(=O)[C@H](Cc4c[nH]c5ccccc45)NC(=O)[C@H](CCCCN)NC(=O)[C@H](CCC(N)=O)NC1=O)C(=O)N[C@@H](CC(=O)O)C(=O)N[C@@H](CO)C(=O)N[C@@H](CCCCN)C(=O)N[C@@H](CCCNC(=N)N)C(=O)N[C@@H](C)C(=O)N3)NC(=O)[C@H](CCC(=O)O)NC(=O)[C@H](CC(C)C)NC(=O)CNC(=O)[C@H](CCC(=O)O)NC2=O [compound 295],IC50,hNav1.7 [1],18 nM
C#CC[C@H](N)C(=O)N[C@@H](Cc1ccc(O)cc1)C(=O)N[C@H]1CSSC[C@@H]2NC(=O)[C@@H]3CSSC[C@@H](C(=O)N[C@@H](CCCNC(=N)N)C(=O)N[C@@H](CCCCN)C(=O)N[C@H](C(=O)N[C@@H](Cc4c[nH]c5ccccc45)C(N)=O)[C@@H](C)CC)NC(=O)[C@H](Cc4c[nH]c5ccccc45)NC(=O)[C@H](CC(C)C)NC(=O)[C@H](CCCCN)NC(=O)[C@H](CSSC[C@H](NC(=O)[C@H]([C@@H](C)O)NC(=O)[C@H](Cc4c[nH]c5ccccc45)NC(=O)[C@H](CCCC)NC(=O)[C@H](Cc4c[nH]c5ccccc45)NC(=O)[C@H](CCCCN)NC(=O)[C@H](CCC(N)=O)NC1=O)C(=O)N[C@@H](CC(=O)O)C(=O)N[C@@H](CO)C(=O)N[C@@H](CCCCN)C(=O)N[C@@H](CCCNC(=N)N)C(=O)N[C@@H](C)C(=O)N3)NC(=O)[C@H](CCCNC(=N)N)NC(=O)[C@H](CC(C)C)NC(=O)CNC(=O)[C@H](CCC(=O)O)NC2=O [compound 296],IC50,hNav1.7 [1],19 nM
C#CC[C@H](N)C(=O)N[C@@H](Cc1ccc(O)cc1)C(=O)N[C@H]1CSSC[C@@H]2NC(=O)[C@@H]3CSSC[C@@H](C(=O)N[C@@H](CCCNC(=N)N)C(=O)N[C@@H](CCCCN)C(=O)N[C@H](C(=O)N[C@@H](Cc4ccccc4)C(N)=O)[C@@H](C)CC)NC(=O)[C@H](Cc4c[nH]c5ccccc45)NC(=O)[C@H](CC(C)C)NC(=O)[C@H](CCCCN)NC(=O)[C@H](CSSC[C@H](NC(=O)[C@H]([C@@H](C)O)NC(=O)[C@H](Cc4c[nH]c5ccccc45)NC(=O)[C@H](CCCC)NC(=O)[C@H](Cc4c[nH]c5ccccc45)NC(=O)[C@H](CCCCN)NC(=O)[C@H](CCC(N)=O)NC1=O)C(=O)N[C@@H](CC(=O)O)C(=O)N[C@@H](CO)C(=O)N[C@@H](CCCCN)C(=O)N[C@@H](CCCNC(=N)N)C(=O)N[C@@H](C)C(=O)N3)NC(=O)[C@H](CCC(=O)O)NC(=O)[C@H](CC(C)C)NC(=O)CNC(=O)[C@H](CCC(=O)O)NC2=O [compound 301],IC50,hNav1.7 [1],35 nM
CCCC[C@@H]1NC(=O)[C@H](Cc2c[nH]c3ccccc23)NC(=O)[C@H](CCCCN)NC(=O)[C@H](CCC(N)=O)NC(=O)[C@@H](NC(=O)[C@H](Cc2ccc(O)cc2)NC(=O)[C@@H](N)Cc2cn(CCOCCOCCOCCOCCOCCOCCOCCOCCOCCOCCOCCNC(=O)CSCc3ccccc3)nn2)CSSC[C@@H]2NC(=O)[C@@H]3CSSC[C@@H](C(=O)N[C@@H](CCCNC(=N)N)C(=O)N[C@@H](CCCCN)C(=O)N[C@H](C(=O)N[C@H](C(N)=O)[C@@H](C)CC)[C@@H](C)CC)NC(=O)[C@H](Cc4c[nH]c5ccccc45)NC(=O)[C@H](CC(C)C)NC(=O)[C@H](CCCCN)NC(=O)[C@H](CSSC[C@H](NC(=O)[C@H]([C@@H](C)O)NC(=O)[C@H](Cc4c[nH]c5ccccc45)NC1=O)C(=O)N[C@@H](CC(=O)O)C(=O)N[C@@H](CO)C(=O)N[C@@H](CCCCN)C(=O)N[C@@H](CCCNC(=N)N)C(=O)N[C@@H](C)C(=O)N3)NC(=O)[C@H](CCCNC(=N)N)NC(=O)[C@H](CC(C)C)NC(=O)CNC(=O)[C@H](CCC(=O)O)NC2=O [compound 427],IC50,hNav1.5; [3],1980 nM
same,IC50,hNav1.7 [2]; [3],1.4 nM
same,IC50,hNav1.4; [3],13 nM
same,Nav1.4/Nav1.7,hNav1.4; ratio of PX IC50 values,9
CCCC[C@@H]1NC(=O)[C@H](Cc2c[nH]c3ccccc23)NC(=O)[C@H](CCCCN)NC(=O)[C@H](CCC(N)=O)NC(=O)[C@@H](NC(=O)[C@H](Cc2ccc(O)cc2)NC(=O)[C@@H](N)CC#N)CSSC[C@@H]2NC(=O)[C@@H]3CSSC[C@@H](C(=O)N[C@@H](CCCNC(=N)N)C(=O)N[C@@H](CCCCN)C(=O)N[C@@H](CCC(=O)O)C(=O)N[C@H](C(N)=O)[C@@H](C)CC)NC(=O)[C@H](Cc4c[nH]c5ccccc45)NC(=O)[C@H](CC(C)C)NC(=O)[C@H](CCCCN)NC(=O)[C@H](CSSC[C@H](NC(=O)[C@H]([C@@H](C)O)NC(=O)[C@H](Cc4c[nH]c5ccccc45)NC1=O)C(=O)N[C@@H](CC(=O)O)C(=O)N[C@@H](CO)C(=O)N[C@@H](CCCCN)C(=O)N[C@@H](CCCNC(=N)N)C(=O)N[C@@H](C)C(=O)N3)NC(=O)[C@H](CCCNC(=N)N)NC(=O)[C@H](CC(C)C)NC(=O)CNC(=O)[C@H](Cc1cn(CCCOCCOCCOCCOCCOCCOCCOCCOCCOCCOCCN)nn1)NC2=O [compound 443],IC50,hNav1.5; [3],1330 nM
same,IC50,hNav1.7 [2]; [3],5.62 nM
same,IC50,hNav1.4; [3],172 nM
C#CC[C@H](N)C(=O)NCCCC[C@@H]1NC(=O)[C@H](CCCNC(=N)N)NC(=O)[C@H](CCCCN)NC(=O)[C@H](CO)NC(=O)[C@H](CC(=O)O)NC(=O)[C@@H]2CSSC[C@@H]3NC(=O)[C@H](CCCNC(=N)N)NC(=O)[C@H](CC(C)C)NC(=O)CNC(=O)[C@H](CCC(=O)O)NC(=O)[C@H](CSSC[C@H](NC(=O)[C@H](Cc4ccc(O)cc4)NC(=O)[C@@H](N)CC#N)C(=O)N[C@@H](CCC(N)=O)C(=O)N[C@@H](CCCCN)C(=O)N[C@@H](Cc4c[nH]c5ccccc45)C(=O)N[C@@H](CC(C)C)C(=O)N[C@@H](Cc4c[nH]c5ccccc45)C(=O)N[C@@H]([C@@H](C)O)C(=O)N2)NC(=O)[C@H](CSSC[C@@H](C(=O)N[C@@H](CCCNC(=N)N)C(=O)N[C@@H](CCCCN)C(=O)N[C@@H](CCC(=O)O)C(=O)N[C@H](C(N)=O)[C@@H](C)CC)NC(=O)[C@H](Cc2c[nH]c4ccccc24)NC(=O)[C@H](CC(C)C)NC(=O)[C@H](CCCCN)NC3=O)NC1=O [compound 449],IC50,hNav1.5; tonic block,1550 nM
same,IC50,hNav1.7 [2]; tonic block,1.5 nM
same,IC50,hNav1.4; tonic block,166 nM
